{"source": "patent US20070154449A1", "about": "“TIGHT JUNCTION MODULATING PEPTIDES FOR ENHANCED MUCOSAL DELIVERY OF THERAPEUTIC COMPOUNDS” (Nastech Pharmaceutical Company Inc., priority 2005, published 2007)", "test": "Intranasal PYY pharmacokinetics in rabbits with PN159 or small molecule enhancers (Example 5)", "type": "in vivo, New Zealand White rabbits", "details": "for PYY plasma concentration: mean of 4 rabbits; for AUCINF (Mean) / AUClast (Mean) / Cmax (Mean) / Tmax (Mean) / t½ (Mean): PYY in plasma, rabbit; for Relative AUC last / Relative Cmax: PYY, rabbit intranasal", "experimental": "Twenty male New Zealand White rabbits age 3-6 months and weighing 2.1-3.0 kg were randomly assigned into one of 5 treatment groups with four animals per group. Test animals were dosed at 15 μl/kg and intranasally via pipette. Table 6 below indicates the composition of five different dose groups.\nFor dosing group 1 (see Table 6) a clinical formulation of PYY including small molecule permeation enhancers was used. The small molecule enhancers in these studies included methyl-β-cyclodextrin, phosphatidylcholine didecanoyl (DDPC), and/or EDTA. Dosing group 2 received PYY dissolved in phosphate buffered saline (PBS). For dosing groups 3-5, various concentrations of PN159 were added to dosing group 2, so that each of dosing groups 3 to 5 consisted of PYY, PN159, and PBS.\nSerial blood samples (about 2 ml each) were collected by direct venipuncture from a marginal ear vein into blood collection tubes containing EDTA as an anticoagulant. Blood samples were collected at 0, 2.5, 5, 10, 15, 30, 45, 60, and 120 minutes post-dosing. After collection of the blood, the tubes were gently rocked several times for anti-coagulation, and then 50 μl aprotinin solution was added. The blood was centrifuged at approximately 1,600×g for 15 minutes at approximately 4° C., and plasma samples were dispensed into duplicate aliquots and stored frozen at approximately −70° C.", "key": {"[1]": {"details": "Group 3: PYY 205 μg/kg intranasal with 25 μM PN159"}, "[2]": {"details": "Group 4: PYY 205 μg/kg intranasal with 50 μM PN159"}, "[3]": {"details": "Group 5: PYY 205 μg/kg intranasal with 100 μM PN159"}, "[4]": {"details": "Group 3 (PN159, 25 μm) compared with Group 2 (no enhancer)"}, "[5]": {"details": "Group 4 (PN159, 50 μm) compared with Group 2 (no enhancer)"}, "[6]": {"details": "Group 5 (PN159, 100 μm) compared with Group 2 (no enhancer)"}}, "data": [{"compound": "CC(C)C[C@H](NC(=O)[C@H](C)NC(=O)[C@H](CCCCN)NC(=O)[C@H](CC(C)C)NC(=O)[C@H](C)NC(=O)[C@H](CC(C)C)NC(=O)[C@H](CCCCN)NC(=O)[C@H](CC(C)C)NC(=O)[C@H](C)NC(=O)[C@H](CC(C)C)NC(=O)[C@@H](N)CCCCN)C(=O)N[C@@H](CCCCN)C(=O)N[C@@H](C)C(=O)N[C@@H](C)C(=O)N[C@@H](CC(C)C)C(=O)N[C@@H](CCCCN)C(=O)N[C@@H](CC(C)C)C(=O)N[C@@H](C)C(N)=O", "note": "[PN159]", "values": [{"measurement": "PYY plasma concentration", "setting": "Group 3: PYY 205 μg/kg intranasal with 25 μM PN159, 0 min", "result": 228.675}, {"measurement": "PYY plasma concentration", "setting": "Group 3: PYY 205 μg/kg intranasal with 25 μM PN159, 2.5 min", "result": 526.375}, {"measurement": "PYY plasma concentration", "setting": "Group 3: PYY 205 μg/kg intranasal with 25 μM PN159, 5 min", "result": 1430.15}, {"measurement": "PYY plasma concentration", "setting": "Group 3: PYY 205 μg/kg intranasal with 25 μM PN159, 10 min", "result": 6521.7}, {"measurement": "PYY plasma concentration", "setting": "Group 3: PYY 205 μg/kg intranasal with 25 μM PN159, 15 min", "result": 12563.075}, {"measurement": "PYY plasma concentration", "setting": "Group 3: PYY 205 μg/kg intranasal with 25 μM PN159, 30 min", "result": 15222.6}, {"measurement": "PYY plasma concentration", "setting": "Group 3: PYY 205 μg/kg intranasal with 25 μM PN159, 45 min", "result": 9081.125}, {"measurement": "PYY plasma concentration", "setting": "Group 3: PYY 205 μg/kg intranasal with 25 μM PN159, 60 min", "result": 4843.15}, {"measurement": "PYY plasma concentration", "setting": "Group 3: PYY 205 μg/kg intranasal with 25 μM PN159, 120 min", "result": 1224.2}, {"measurement": "PYY plasma concentration", "setting": "Group 4: PYY 205 μg/kg intranasal with 50 μM PN159, 0 min", "result": 424.4}, {"measurement": "PYY plasma concentration", "setting": "Group 4: PYY 205 μg/kg intranasal with 50 μM PN159, 2.5 min", "result": 749.975}, {"measurement": "PYY plasma concentration", "setting": "Group 4: PYY 205 μg/kg intranasal with 50 μM PN159, 5 min", "result": 1293.4}, {"measurement": "PYY plasma concentration", "setting": "Group 4: PYY 205 μg/kg intranasal with 50 μM PN159, 10 min", "result": 12517.2}, {"measurement": "PYY plasma concentration", "setting": "Group 4: PYY 205 μg/kg intranasal with 50 μM PN159, 15 min", "result": 34455.3}, {"measurement": "PYY plasma concentration", "setting": "Group 4: PYY 205 μg/kg intranasal with 50 μM PN159, 30 min", "result": 35294.375}, {"measurement": "PYY plasma concentration", "setting": "Group 4: PYY 205 μg/kg intranasal with 50 μM PN159, 45 min", "result": 21582.225}, {"measurement": "PYY plasma concentration", "setting": "Group 4: PYY 205 μg/kg intranasal with 50 μM PN159, 60 min", "result": 9461.925}, {"measurement": "PYY plasma concentration", "setting": "Group 4: PYY 205 μg/kg intranasal with 50 μM PN159, 120 min", "result": 2337.775}, {"measurement": "PYY plasma concentration", "setting": "Group 5: PYY 205 μg/kg intranasal with 100 μM PN159, 0 min", "result": 294.225}, {"measurement": "PYY plasma concentration", "setting": "Group 5: PYY 205 μg/kg intranasal with 100 μM PN159, 2.5 min", "result": 1748.225}, {"measurement": "PYY plasma concentration", "setting": "Group 5: PYY 205 μg/kg intranasal with 100 μM PN159, 5 min", "result": 3088.2}, {"measurement": "PYY plasma concentration", "setting": "Group 5: PYY 205 μg/kg intranasal with 100 μM PN159, 10 min", "result": 14486.6}, {"measurement": "PYY plasma concentration", "setting": "Group 5: PYY 205 μg/kg intranasal with 100 μM PN159, 15 min", "result": 20882.725}, {"measurement": "PYY plasma concentration", "setting": "Group 5: PYY 205 μg/kg intranasal with 100 μM PN159, 30 min", "result": 25470.475}, {"measurement": "PYY plasma concentration", "setting": "Group 5: PYY 205 μg/kg intranasal with 100 μM PN159, 45 min", "result": 16499.55}, {"measurement": "PYY plasma concentration", "setting": "Group 5: PYY 205 μg/kg intranasal with 100 μM PN159, 60 min", "result": 10676.625}, {"measurement": "PYY plasma concentration", "setting": "Group 5: PYY 205 μg/kg intranasal with 100 μM PN159, 120 min", "result": 1891.275}, {"measurement": "AUCINF (Mean)", "setting": "[1]", "result": 796354.7, "unit": "pg·min/mL"}, {"measurement": "AUClast (Mean)", "setting": "[1]", "result": 748104.1, "unit": "pg·min/mL"}, {"measurement": "Cmax (Mean)", "setting": "[1]", "result": 15.53395, "unit": "ng/mL"}, {"measurement": "Tmax (Mean)", "setting": "[1]", "result": 22.5, "unit": "min"}, {"measurement": "t½ (Mean)", "setting": "[1]", "result": 24.8467, "unit": "min"}, {"measurement": "AUCINF (Mean)", "setting": "[2]", "result": 1787348, "unit": "pg·min/mL"}, {"measurement": "AUClast (Mean)", "setting": "[2]", "result": 1692499, "unit": "pg·min/mL"}, {"measurement": "Cmax (Mean)", "setting": "[2]", "result": 40.99553, "unit": "ng/mL"}, {"measurement": "Tmax (Mean)", "setting": "[2]", "result": 26.25, "unit": "min"}, {"measurement": "t½ (Mean)", "setting": "[2]", "result": 25.5355, "unit": "min"}, {"measurement": "AUCINF (Mean)", "setting": "[3]", "result": 1518949, "unit": "pg·min/mL"}, {"measurement": "AUClast (Mean)", "setting": "[3]", "result": 1384241, "unit": "pg·min/mL"}, {"measurement": "Cmax (Mean)", "setting": "[3]", "result": 27.9744, "unit": "ng/mL"}, {"measurement": "Tmax (Mean)", "setting": "[3]", "result": 33.75, "unit": "min"}, {"measurement": "t½ (Mean)", "setting": "[3]", "result": 20.4628, "unit": "min"}, {"measurement": "Relative AUC last", "setting": "[4]", "result": 21, "unit": "×"}, {"measurement": "Relative Cmax", "setting": "[4]", "result": 30, "unit": "×"}, {"measurement": "Relative AUC last", "setting": "[5]", "result": 46, "unit": "×"}, {"measurement": "Relative Cmax", "setting": "[5]", "result": 79, "unit": "×"}, {"measurement": "Relative AUC last", "setting": "[6]", "result": 38, "unit": "×"}, {"measurement": "Relative Cmax", "setting": "[6]", "result": 54, "unit": "×"}]}]}
